From paper PMC12254355 (Nature Communications, 2025) come the findings set out here.

The test system of data set [1] is P. aeruginosa PAO1. The settings on record: PAO1, 24 h.
The subject of data set [2] is E. faecium ATCC 700221 - VRE. The settings on record: ATCC 700221, 24 h.
Data set [3] relates to HEK293T cells. The settings on record: for CC50 vs HEK293T cells (source data of Figure 4a): 24 h.
For data set [4], the system named is human red blood cells. The settings on record: pH 7.4.
Data set [5] deals with A. baumannii ATCC 19606. The settings on record: ATCC 19606, 24 h.
Data set [6] deals with E. coli ATCC 11775. The settings on record: ATCC 11775, 24 h.
Data set [7] has as its system E. coli AIC221. The settings on record: AIC221, 24 h.
Data set [8] has as its system P. aeruginosa PA14. The settings on record: PA14, 24 h.

Ends that are not written are not given here.

Take PLWKRRRFLSMLKARAKR [Conoserver-4]: the “Minimal Inhibitory Concentration, P. aeruginosa PAO1 (-)” value in data set [1] worked out at 64 µmol/L. The “Minimal Inhibitory Concentration, E. faecium ATCC 700221 - VRE (+)” value (“Minimal Inhibitory Concentration … (+)” below) in data set [2] is 32 µmol/L. The molecule further returned an SIcytotoxicity in data set [3] of 2.6. For the same molecule, in data set [4], the HC50 was found to be 707.7.

As for KLHGLLTRRSLKNFWKRNLYLR [Conoserver-6], the “Minimal Inhibitory Concentration, A. baumannii ATCC 19606 (-)” value in data set [5] came to 32 µmol/L. In addition, the “Minimal Inhibitory Concentration, E. coli ATCC 11775 (-)” value in data set [6] is 64 µmol/L. Further, in data set [7], the “Minimal Inhibitory Concentration, E. coli AIC221 (-)” value was found to be 4 µmol/L. For the same molecule, the “Minimal Inhibitory Concentration, P. aeruginosa PAO1 (-)” value in data set [1] turned out to be 16 µmol/L. In addition, the “Minimal Inhibitory Concentration, P. aeruginosa PA14 (-)” value in data set [8] was determined as 32 µmol/L. Also, the “Minimal Inhibitory Concentration … (+)” value in data set [2] is 32 µmol/L. Also, in data set [3], the SIcytotoxicity is listed as 7.9 and the “CC50 vs HEK293T cells (source data of Figure 4a)” value stood at 31.74 µmol/L. The molecule also gave an HC50 in data set [4] of 66.3.

As to FLKKIWRSKLVKRL [UniprotKB-9], in data set [8], the “Minimal Inhibitory Concentration, P. aeruginosa PA14 (-)” value was 16 µmol/L. Further, in data set [3], the “CC50 vs HEK293T cells” value stood at 20 µmol/L, the SIcytotoxicity was found to be 1.3 and the “CC50 vs HEK293T cells (source data of Figure 4a)” value stood at 20.18 µmol/L. In data set [4], this molecule gave an HC50 of 219457.0.

As to “ARKFKWGKLFSAGKKLLKKAKKLSKNK [Arachnoserver-11]”, in data set [5], the “Minimal Inhibitory Concentration, A. baumannii ATCC 19606 (-)” value turned out to be 64 µmol/L. Also, the “Minimal Inhibitory Concentration, E. coli ATCC 11775 (-)” value in data set [6] stood at 32 µmol/L. Moreover, the “Minimal Inhibitory Concentration, E. coli AIC221 (-)” value in data set [7] was found to be 4 µmol/L. In addition, the “Minimal Inhibitory Concentration, P. aeruginosa PAO1 (-)” value in data set [1] worked out at 8 µmol/L. Besides, the “Minimal Inhibitory Concentration, P. aeruginosa PA14 (-)” value in data set [8] came to 8 µmol/L. Also, the “Minimal Inhibitory Concentration … (+)” value in data set [2] is 8 µmol/L. In data set [3], the “CC50 vs HEK293T cells” value was 9 µmol/L, the SIcytotoxicity is reported as 2.2 and the “CC50 vs HEK293T cells (source data of Figure 4a)” value was found to be 8.722 µmol/L. This molecule returned an HC50 in data set [4] of 1118.0.

QPRRVKRFKKFFKKLKNSVKKRAKKF [ISOB-7]: the “Minimal Inhibitory Concentration, E. coli AIC221 (-)” value in data set [7] stood at 64 µmol/L. Further, the “Minimal Inhibitory Concentration, P. aeruginosa PAO1 (-)” value in data set [1] worked out at 64 µmol/L. In data set [2], the “Minimal Inhibitory Concentration … (+)” value is 32 µmol/L. For the same molecule, in data set [3], the SIcytotoxicity is 4.0. This molecule also gave an HC50 in data set [4] of 569.0.

LRAKMLNSKFIKL [Conoserver-5] came in with an HC50 in data set [4] of 1.085e+083.

As to GKWLISSLVAKHL [UniprotKB-6], in data set [3], the “CC50 vs HEK293T cells” value came out at 19 µmol/L, the SIcytotoxicity is 0.3 and the “CC50 vs HEK293T cells (source data of Figure 4a)” value turned out to be 19.46 µmol/L. Besides, the HC50 in data set [4] is listed as 686.0.

For the molecule RHRIVRTYIAKFGLK [ISOB-2], the “Minimal Inhibitory Concentration, E. coli AIC221 (-)” value in data set [7] was 64 µmol/L. The “Minimal Inhibitory Concentration … (+)” value in data set [2] stood at 32 µmol/L. Moreover, the SIcytotoxicity in data set [3] worked out at 7.5. The molecule further returned an HC50 in data set [4] of 1.085e+083.

For the molecule KRRRASPLWKRRRFLSMLKARAK [UniprotKB-10], the “Minimal Inhibitory Concentration … (+)” value in data set [2] came out at 32 µmol/L. In addition, in data set [3], the SIcytotoxicity came to 1.3 and the “CC50 vs HEK293T cells (source data of Figure 4a)” value turned out to be 43.12 µmol/L. The HC50 in data set [4] is listed as 627.2.

On to SFKKILSAGKKLFKKAKKL [Arachnoserver-29], for which the “Minimal Inhibitory Concentration, E. coli ATCC 11775 (-)” value in data set [6] came out at 16 µmol/L. The “Minimal Inhibitory Concentration, E. coli AIC221 (-)” value in data set [7] was found to be 4 µmol/L. Moreover, in data set [1], the “Minimal Inhibitory Concentration, P. aeruginosa PAO1 (-)” value was determined as 16 µmol/L. Moreover, in data set [8], the “Minimal Inhibitory Concentration, P. aeruginosa PA14 (-)” value is 16 µmol/L. Moreover, the “Minimal Inhibitory Concentration … (+)” value in data set [2] stood at 16 µmol/L. Besides, in data set [3], the SIcytotoxicity amounted to 4.3 and the “CC50 vs HEK293T cells (source data of Figure 4a)” value stood at 17.1 µmol/L. Moreover, in data set [4], the HC50 is recorded as 1.085e+083.

For the molecule KWLGKLGVILSHL [UniprotKB-15], in data set [5], the “Minimal Inhibitory Concentration, A. baumannii ATCC 19606 (-)” value stood at 64 µmol/L. The “Minimal Inhibitory Concentration, E. coli ATCC 11775 (-)” value in data set [6] stood at 32 µmol/L. Moreover, the “Minimal Inhibitory Concentration, E. coli AIC221 (-)” value in data set [7] is 32 µmol/L. The “Minimal Inhibitory Concentration … (+)” value in data set [2] turned out to be 64 µmol/L. Further, in data set [3], the SIcytotoxicity was determined as 1.4 and the “CC50 vs HEK293T cells (source data of Figure 4a)” value turned out to be 45.97 µmol/L. In data set [4], this molecule registered an HC50 of 1.374e+045.

`CC(C)C[C@H](NC(=O)[C@H](Cc1ccccc1)NC(=O)CNC(=O)[C@H](CCCNC(=N)N)NC(=O)[C@H](CCCNC(=N)N)NC(=O)[C@H](CCC(N)=O)NC(=O)[C@H](Cc1c[nH]c2ccccc12)NC(=O)[C@H](CC(C)C)NC(=O)[C@@H]1CCCN1C(=O)[C@H](CO)NC(=O)[C@H](C)NC(=O)[C@H](CCCNC(=N)N)NC(=O)CNC(=O)[C@H](CCCNC(=N)N)NC(=O)[C@@H](N)CCCCN)C(=O)N[C@@H](CO)C(=O)N[C@@H](CCCCN)C(=O)N[C@@H](CC(C)C)C(=O)N[C@@H](CCCCN)C(=O)N[C@@H](C)C(=O)N[C@@H](CCCNC(=N)N)C(=O)N[C@@H](C)C(=O)N[C@@H](CCCCN)C(=O)N[C@@H](CCCNC(=N)N)C(=O)N[C@@H](CC(N)=O)C(=O)NCC(=O)N[C@@H](C)C(=O)N[C@@H](Cc1ccccc1)C(=O)N[C@@H](Cc1c[nH]cn1)C(=O)N[C@@H](CC(C)C)C(=O)N1CCC[C@H]1C(=O)N[C@@H](CCCNC(=N)N)C(=O)O` [Conoserver-7]: the “Minimal Inhibitory Concentration, P. aeruginosa PAO1 (-)” value in data set [1] turned out to be 64 µmol/L. For the same molecule, the “Minimal Inhibitory Concentration … (+)” value in data set [2] was found to be 32 µmol/L. Further, the SIcytotoxicity in data set [3] was found to be 2.5. Moreover, in data set [4], the HC50 was 1.085e+083.

Take “KQKYLIKRSRAKMQNHKLFKLTKR [Conoserver-16]”: the “Minimal Inhibitory Concentration … (+)” value in data set [2] was 64 µmol/L. Also, the SIcytotoxicity in data set [3] is listed as 1.5. Besides, the HC50 in data set [4] turned out to be 1.085e+083.

For RLRAKMRNSKLFKLTKR [Conoserver-10], the HC50 in data set [4] amounted to 1.085e+083.

In the case of “KRKGYLRLVPEERIWQKGLWWLRRLETDSDKLQK [ISOB-3]”, the HC50 in data set [4] came out at 1.085e+083.

For the molecule RRVKRFKKFFMKL [UniprotKB-18], the “Minimal Inhibitory Concentration, E. coli AIC221 (-)” value in data set [7] came out at 64 µmol/L. In addition, in data set [1], the “Minimal Inhibitory Concentration, P. aeruginosa PAO1 (-)” value was 32 µmol/L. Also, the “Minimal Inhibitory Concentration … (+)” value in data set [2] was 32 µmol/L. The same molecule displayed an SIcytotoxicity in data set [3] of 3.1. The molecule further registered an HC50 in data set [4] of 1.827e+053.

In the case of “RQEYPTKRLRAKMLNSKFIKLIKR [Conoserver-12]”, in data set [7], the “Minimal Inhibitory Concentration, E. coli AIC221 (-)” value came out at 32 µmol/L. Besides, the “Minimal Inhibitory Concentration … (+)” value in data set [2] was 16 µmol/L. For the same molecule, the SIcytotoxicity in data set [3] was determined as 5.8. This molecule also had an HC50 in data set [4] of 1.085e+083.

Regarding “KKQIRLYLLKYYGKKSSSKSVRKIVISK [Arachnoserver-20]”, the “Minimal Inhibitory Concentration … (+)” value in data set [2] came out at 32 µmol/L. The molecule further returned an SIcytotoxicity in data set [3] of 2.8. The molecule further came in with an HC50 in data set [4] of 896.7.

Take “RRASPLWKRRRFLSMLKARAKRTGYK [Conoserver-3]”: the “Minimal Inhibitory Concentration, E. coli AIC221 (-)” value in data set [7] was determined as 64 µmol/L. The “Minimal Inhibitory Concentration, P. aeruginosa PAO1 (-)” value in data set [1] is 64 µmol/L. Further, the “Minimal Inhibitory Concentration … (+)” value in data set [2] worked out at 32 µmol/L. This molecule also returned an SIcytotoxicity in data set [3] of 6.0. Further, in data set [4], the HC50 was 459.2.

For KKWRELSRLSRVLQIL [Conoserver-14], the “Minimal Inhibitory Concentration, A. baumannii ATCC 19606 (-)” value in data set [5] turned out to be 16 µmol/L. Besides, in data set [6], the “Minimal Inhibitory Concentration, E. coli ATCC 11775 (-)” value came to 16 µmol/L. For the same molecule, the “Minimal Inhibitory Concentration, E. coli AIC221 (-)” value in data set [7] was found to be 8 µmol/L. Further, in data set [1], the “Minimal Inhibitory Concentration, P. aeruginosa PAO1 (-)” value is 64 µmol/L. Also, the “Minimal Inhibitory Concentration … (+)” value in data set [2] turned out to be 32 µmol/L. The same molecule registered an SIcytotoxicity in data set [3] of 7.3. Moreover, in data set [4], the HC50 is recorded as 1826.0.

In the case of “KRLKGFAKKLWNSKLARKIRTKGLKYVKNFAK [UniprotKB-7]”, the “Minimal Inhibitory Concentration … (+)” value in data set [2] was 8 µmol/L. In addition, in data set [3], the SIcytotoxicity stood at 3.7 and the “CC50 vs HEK293T cells (source data of Figure 4a)” value is 14.78 µmol/L. This molecule also yielded an HC50 in data set [4] of 207.9.

On to LTKWLGKLGVIL [UniprotKB-11], for which the SIcytotoxicity in data set [3] is recorded as 4.4. In data set [4], this molecule registered an HC50 of 146.7.

As to KLWNSKLARKIRTKGLKYVKNFAK [UniprotKB-3], the “Minimal Inhibitory Concentration … (+)” value in data set [2] worked out at 32 µmol/L. Further, in data set [3], the SIcytotoxicity came out at 1.5 and the “CC50 vs HEK293T cells (source data of Figure 4a)” value stood at 11.61 µmol/L. This molecule also had an HC50 in data set [4] of 8.23e+034.

On to RRVKRFKKFFKKL [ISOB-6], for which the “Minimal Inhibitory Concentration, P. aeruginosa PAO1 (-)” value in data set [1] came to 32 µmol/L. The “Minimal Inhibitory Concentration, P. aeruginosa PA14 (-)” value in data set [8] came out at 64 µmol/L. Further, the “Minimal Inhibitory Concentration … (+)” value in data set [2] is 32 µmol/L. In data set [3], this molecule returned an SIcytotoxicity of 6.5. This molecule gave an HC50 in data set [4] of 1.085e+083.

With RKRRRFISMLKARAKRR [Conoserver-15], the “Minimal Inhibitory Concentration … (+)” value in data set [2] was found to be 32 µmol/L. Also, in data set [3], the SIcytotoxicity was found to be 0.7 and the “CC50 vs HEK293T cells (source data of Figure 4a)” value was 22.52 µmol/L. The molecule further showed an HC50 in data set [4] of 1.085e+083.

On to KRRRASPLWKRRRFLSMLKARAK [Conoserver-2], for which, in data set [1], the “Minimal Inhibitory Concentration, P. aeruginosa PAO1 (-)” value came to 64 µmol/L. In data set [2], the “Minimal Inhibitory Concentration … (+)” value was determined as 32 µmol/L. In data set [3], this molecule showed an SIcytotoxicity of 3.6. Besides, in data set [4], the HC50 is on record as 1570.0.
